This is an account of results in patent EP0656355A1, “BIPHENYLMETHANE DERIVATIVE AND MEDICINE CONTAINING THE SAME” (WAKUNAGA SEIYAKU KABUSHIKI KAISHA, priority 1992, dated 1994).

Assay [1] has as its system angiotensin II contraction in longitudinal ileac muscles. The assay is described as follows: Inhibitory activity to angiotensin II contraction in longitudinal ileac muscles excised from a guinea pig. The format is cell-based, Hartley male guinea pig. Conditions: Cavia porcellus, 20 min; 50% contraction inhibition concentration; 10⁻⁸M angiotensin II; test compound reacted for 20 minutes; guinea pig ileum longitudinal muscle; read-out: IC₅₀. Here is the method:
(2) Inhibitory activity to angiotensin II contraction in longitudinal ileac muscles excised from a guinea pig
A Hartley male guinea pig (350-450 g in weight) was sacrificed under exsanguination, followed by the excision of its ileum.
A longitudinal muscle tissue (2 cm long) was prepared from the ileum in a manner known per se in the art. The sample was suspended in a 20-mℓ Magnus cylinder filled with a Tylode solution [composition (mM): NaCℓ 137, KCℓ 2.7, CaCℓ₂ 1.88, MgCℓ₂ 1.1, NaH₂PO₄ 0.4, NaH₂CO₃ 11.8 and glucose 5.6). The Tylode solution was incubated at 37°C and saturated with a mixed gas consisting of 95% O₂ + 5% CO₂. Using an isometric transducer ("TB-611T", manufactured by Nihon Kohden Corporation), variations in contraction were measured. The measurement results were recorded on a computer ("PC-9801", manufactured by NEC Corporation).
Under a load of 0.5 g initial tension, the longitudinal muscle sample was equilibrated in a nutrient solution for about one hour while being washed therewith at intervals of 15 minutes. Then, contracture by the administration of 80 mM of KCℓ was repeated twice. After conforming that the contraction occurred stably, the following test was conducted.
First, 10^-8M angiotensin II was administered to the sample and its maximum contraction was recorded. The test compound was then administered to the sample and they were reacted for 20 minutes. Administered again was 10⁻⁸M angiotensin II and the maximum contraction was measured. […] This test was repeated at increased concentrations of the test compound. A 50% contraction inhibition concentration (IC₅₀) was determined in accordance with a linear regressive calculation of the contraction inhibition rates.

In assay [2] the test system is renal hypertensive rats. The assay is described as follows: Antihypertensive action on renal hypertensive rats (invasive). The format is in vivo, male SD rat. Conditions: decreased rate of mean blood pressure; orally administered at 3 mg/kg; femoral artery cannula. From the text:
(4) Antihypertensive action on renal hypertensive rats (invasive)
Renal hypertensive rats were each prepared by constricting the left renal artery of a male SD rat (age: 6 weeks old, body weight: 190-220 g) with a silver clip (inner diameter: 0.017 inch) under anesthesia. Antihypertensive action was studied employing the rats whose mean blood pressure arose to 150 mmHg or higher in 4-8 weeks after the constriction of the renal artery. On the day before the test, a cannula for measure of blood pressure was inserted into the femoral artery of each of the renal hypertensive rats under anesthesia and was allowed to remain in the artery. The rats were maintained on food and water ad libitum until immediately before the test was started. The cannula so inserted was connected to a blood pressure transducer and mean blood pressure was recorded on a polygraph. After the blood pressure became stable, the test compound which was suspended in 0.5% carboxymethyl cellulose was orally administered to each of the rats at 3 mg/kg. In accordance with the following equation, a decreased rate of blood pressure (%) was calculated from the blood pressure values before and after the administration of the test compound. [formula]

Assay [3] deals with renal hypertensive rats. The assay is described as follows: Antihypertensive action on renal hypertensive rats (non-invasive). The class given is in vivo, male SD rat. Conditions: decreased rate of systolic blood pressure; orally administered at 10 mg/kg; non-invasive sphygmomanometer. From the text:
(3) Antihypertensive action on renal hypertensive rats (non-invasive)
Renal hypertensive rats were each prepared by constricting the left renal artery of a male SD rat (age: 6 weeks old, body weight: 200-220 g) with a silver clip (inner diameter: 0.017 inch) under anesthesia. The rats whose systolic blood pressure arose to 160 mmHg or higher in 4-8 weeks after the constriction of the renal artery were used for the test. The rats were maintained on food and water ad libitum until immediately before the test was started. Each test compound which was suspended in 0.5% methyl cellulose was orally administered at 10 mg/kg. After the administration of the test compound, the systolic blood pressure was measured periodically by a non-invasive sphygmomanometer ("BP-98", manufactured by SOFTLON K.K.). In accordance with the following equation, a decreased rate of blood pressure (%) was calculated from the blood pressure values before and after the administration of the compound. [formula]

In assay [4] the target is T1, angiotensin II (AII) receptor (Rattus norvegicus, UniProt P25095).
T1 construct: Vascular smooth muscle cells, which had been separated from the aorta of a male Wistar rat and cultured on a 24-well multiplate; endogenous in cells; host or cells: primary cultured vascular smooth muscle cells from the aorta of a male Wistar rat
T1 sequence (P25095 1-359): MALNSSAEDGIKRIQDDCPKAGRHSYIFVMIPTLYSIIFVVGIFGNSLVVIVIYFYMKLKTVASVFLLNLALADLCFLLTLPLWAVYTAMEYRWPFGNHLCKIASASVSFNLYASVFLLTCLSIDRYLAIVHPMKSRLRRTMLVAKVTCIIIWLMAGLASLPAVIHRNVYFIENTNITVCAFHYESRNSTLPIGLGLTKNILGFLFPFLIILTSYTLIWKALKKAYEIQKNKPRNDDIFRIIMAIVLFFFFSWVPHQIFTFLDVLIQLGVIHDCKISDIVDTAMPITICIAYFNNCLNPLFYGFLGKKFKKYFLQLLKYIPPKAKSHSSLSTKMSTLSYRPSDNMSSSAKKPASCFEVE
The assay is described as follows: Inhibitory action against the binding with angiotensin II (AII) receptor, 125I-AII competition on cultured rat aortic smooth muscle cells. Conditions: 50% substitution of ¹²⁵I-AII specific binding; ¹²⁵I-AII 2 x 10⁻¹⁰M; one hour at room temperature; rat vascular smooth muscle cells; read-out: IC₅₀. Also noted: species or system male Wistar rat. Here is the method: (1) Inhibitory action against the binding with angiotensin II (AII) receptor, using cultured rat aortic smooth muscle cells The present test was conducted in accordance with the method reported by Chiu et al. in European Journal of Pharmacology, 157, 13-21(1988), though after some modifications. […] To each well, ¹²⁵I-AII (final concentration: 2 x 10⁻¹⁰M) was added together with or without a test compound to give a total volume of 0.2 mℓ. Then the wells were incubated for one hour at room temperature to make the ¹²⁵I-AII and the test compound competitively bind to the vascular smooth muscle cells. Each well was thereafter washed with an ice-cold buffer three times to remove unbound ¹²⁵I-AII. To the cells, 0.2 mℓ of a 1 mol/ℓ solution of sodium hydroxide was added to solubilize the bound ¹²⁵I-AII. A bound amount of ¹²⁵I-AII contained in the resulting cell solution was measured by a gamma counter. The above test was conducted for each compound at different concentrations of 3 doses or more. The inhibition rate against the specific binding with ¹²⁵I-AII at each concentration was calculated in accordance with an equation to be set out subsequently herein.

As to `CCc1nn(Cc2ccc(-c3ccccc3-c3nn[nH]n3)cc2)c(=NC(=O)C2CCCCC2C(=O)O)s1` (racemic) [Compound No.158, cis-2-[[5-Ethyl-3-[2'-(1H-tetrazol-5-yl)biphenyl-4-yl]methyl-1,3,4-thiadiazoline-2-yliden]aminocarbonyl] cyclohxanecarboxylic acid], the IC50 in assay [1] came out at 0.51 nM. The “Maximum action (%)” value in the assay on renal hypertensive rats [2] was 38.4%.
For `Cc1nn(Cc2ccc(-c3ccccc3-c3nnn[nH]3)cc2)c(=NC(=O)C2CC2)s1` [Compound No.17, 2-Cyclopropylcarbonylimino-5-methyl-3-[2'-(1H-tetrazol-5-yl)biphenyl-4-yl]methyl-1,3,4-thiadiazoline], in assay [1], the IC50 came to 7.5 nM. The “Maximum action (%)” value in the assay with renal hypertensive rats [3] came to 25.9%.
On to `CCCc1nn(Cc2ccc(-c3ccccc3-c3nnn[nH]3)cc2)c(=NC(=O)C2CC2)s1` [Compound No.21, 2-Cyclopropylcarbonylimino-5-n-propyl-3-[2'-(1H-tetrazol-5-yl)biphenyl-4-yl]methyl-1,3,4-thiadiazoline], for which the IC50 in assay [1] was 8 nM. Also, in the assay with renal hypertensive rats [3], the “Maximum action (%)” value was 26.3%.
`CCc1nn(Cc2ccc(-c3ccccc3-c3nnn[nH]3)cc2)c(=NC(=O)c2ccccc2C(=O)O)s1` [Compound No.126, N-[5-Ethyl-3-[2'-(1H-tetrazol-5-yl)biphenyl-4-yl]methyl-1,3,4-thiadiazoline-2-yliden]phthalamic acid]: in assay [4], the IC50 was found to be 32 nM. For the same molecule, the “Maximum action (%)” value in the assay on renal hypertensive rats [2] is given as 27.6%.
Consider `CCc1nn(Cc2ccc(-c3ccccc3-c3nnn[nH]3)cc2)c(=NC(=O)C2=C(C(=O)O)CCC2)s1` [Compound No.130, 2-[[5-Ethyl-3-[2'-(1H-tetrazol-5-yl)biphenyl-4-yl]methyl-1,3,4-thiadiazoline-2-yliden]aminocarbonyl]-1-cyclopenten carboxylic acid], for which the IC50 in assay [1] was 0.65 nM. Further, the “Maximum action (%)” value in the assay with renal hypertensive rats [2] stood at 41.2%.
Take `O=C(O)c1csc(=NC(=O)C2CC2)n1Cc1ccc(-c2ccccc2-c2nnn[nH]2)cc1` [Compound No.242, 2-Cyclopropylcarbonylimino-3-[2'-(1H-tetrazol-5-yl)biphenyl-4-yl]methylthiazoline-4-carboxylic acid]: the IC50 in assay [4] was 13 nM. Further, the “Maximum action (%)” value with renal hypertensive rats [2] turned out to be 29.5%.
